Data published in US11390606B2, “Pyridazinone compounds and uses thereof” (Edgewise Therapeutics, Inc., priority 2018, dated 2022).

biological target: T1, skeletal myofibrils (Rabbit Psoas), myosin ATPase activity; experiment: Skeletal Myofibril ATPase Assay; type: biochemical; details: skeletal myofibrils (Rabbit Psoas 0.25 mg/mL), PK/LDH-coupled NADH absorbance at 340 nm
T1 construct: Rabbit Psoas Prep 11 (0.25 mg/mL)
Protocol: Overview: Myosin ATPase activity is assessed by using a coupled reaction system, in which ADP generated by the myosin ATPase function is coupled to the disappearance of NADH through the pyruvate kinase/lactate dehydrogenase (PK-LDH) system. Myosin ATPase activity produces ADP, which is used as a substrate for PK to produce pyruvate and regenerate ATP. The pyruvate is then used as a substrate by LDH to oxidize NADH to NAD+. The rate of the reaction is monitored through the time-dependent disappearance of NADH using absorbance at 340 nm. Inhibition of ATPase activity by the assayed compounds is indicated by a reduced rate of NADH loss, relative to vehicle-treated controls, over the experimental time window. To assess the selectivity of the assayed compounds for skeletal myofibrils, the compounds are counter-screened in cardiac myofibrils.
Materials: The following stock solutions and reagents were used in the Skeletal Myofibril ATPase Assay:
Stock Solutions of pCa buffer. Combine PIPES, CaCl2, and EGTA solutions with 70 mL of water. Adjust pH to 7.0 and bring final volume to 100 mL.
Buffer A & Buffer B. Buffers were stored on ice until use.
Skeletal Myofibril ATPase Assay Procedure: BSA, ATP, NADH, PEP, and DTT solutions were thawed at room temperature, then transferred to ice. Pellet-frozen myofibrils were transferred with approximately twice the required volume into a sufficiently large tube and capped. Myofibrils were thawed by rolling in a water bath for approximately 15 min at room temperature and cooled on ice. Buffers A and B were prepared by adjusting volumes as necessary for required number of wells and stored on ice. 0.5 μL of the compounds to be assayed were added into wells. 25 μL of Buffer A was dispensed into the wells, followed by 25 μL of Buffer B. The wells were measured for absorbance at 340 nm, using a kinetic protocol in which the wells are read every 1.5-2 min for 45 min. The slope of the data was approximated by subtracting the minimum absorbance value from the maximum value for each well. This was accomplished either in the SoftMax Pro software or in a spreadsheet program such as Excel. Using GraphPad Prism 8.0, the data was normalized by assigning a value of 100% to the 1% DMSO vehicle wells. Typically, a normalized 0% value was simply assigned to a (Max−Min) value of 0. The normalized data was fit to a Four Parameter Logistic sigmoidal equation, constraining the bottom to be 0 or greater. Compounds of Table 1 to 4 were tested and results of the assay appear in Table 5 herein. A=IC50 is less than or equal to 10 μM; B=IC50 is greater than 10 μM and less than 100 μM; C=IC50 is greater than 100 μM.

SMILES | IC50 [µM]
CC1(C)Cc2cc(-c3ccc(=O)n(Cc4ccc(Cl)cc4)n3)ccc2O1 [Compound 115, 2-(4-chlorobenzyl)-6-(2,2-dimethyl-2,3-dihydrobenzofuran-5-yl)pyridazin-3(2H)-one] | > 100
O=c1ccc(-c2ccc3scnc3c2)nn1Cc1ccc(Cl)cc1 [Compound 117, 6-(benzo[d]thiazol-5-yl)-2-(4-chlorobenzyl)pyridazin-3(2H)-one] | > 100
O=c1ccc(-c2ccc(F)cc2)nn1Cc1ccccc1F [Compound 243, 2-(2-fluorobenzyl)-6-(4-fluorophenyl)pyridazin-3(2H)-one] | 10 to 100
COc1cc(F)ccc1-c1ccc(=O)n(Cc2ccc(Cl)cc2)n1 [Compound 316, 2-(4-chlorobenzyl)-6-(4-fluoro-2-methoxyphenyl)pyridazin-3(2H)-one] | > 100
O=c1ccc(-c2ccc(Cl)cc2)nn1Cc1ccc(C(F)(F)F)cc1 [Compound 305, 6-(4-chlorophenyl)-2-(4-(trifluoromethyl)benzyl)pyridazin-3(2H)-one] | > 100
CNC(=O)c1ccc(-c2ccc(=O)n(Cc3ccc(Cl)cc3)n2)cc1 [Compound 113] | 10 to 100
CN(C)S(=O)(=O)c1ccc(Cn2nc(-c3ccc(OC(F)F)cc3)ccc2=O)cc1 [Compound 118, 4-((3-(4-(difluoromethoxy)phenyl)-6-oxopyridazin-1(6H)-yl)methyl)-N,N-dimethyl-benzenesulfonamide] | > 100
CN(C)S(=O)(=O)c1ccc(-c2ccc(=O)n(Cc3ccc(Cl)cc3)n2)cc1 [Compound 120, 4-(1-(4-chlorobenzyl)-6-oxo-1,6-dihydropyridazin-3-yl)-N,N-dimethyl-benzenesulfonamide] | > 100
O=c1ccc(-c2cnc(OCC3COC3)nc2)nn1Cc1ccc(F)cc1F [Compound 25, 2-(2,4-difluorobenzyl)-6-(2-(oxetan-3-ylmethoxy)pyrimidin-5-yl)pyridazin-3(2H)-one] | < 10
O=C1Cc2cc(-c3ccc(=O)n(Cc4ccc(Cl)cc4)n3)ccc2N1 [Compound 122, 5-(1-(4-chlorobenzyl)-6-oxo-1,6-dihydropyridazin-3-yl)indolin-2-one] | > 100
CNc1ncc(-c2ccc(=O)n(Cc3ccc(Cl)cc3)n2)cn1 [Compound 12, 2-(4-chlorobenzyl)-6-(2-(methylamino)pyrimidin-5-yl)pyridazin-3(2H)-one] | < 10
O=c1ccc(-c2cnc(OCC(F)(F)F)nc2)nn1Cc1ccc(O)c(Cl)c1 [Compound 7, 2-(3-chloro-4-hydroxybenzyl)-6-(2-(2,2,2-trifluoroethoxy)pyrimidin-5-yl)pyridazin-3(2H)-one] | < 10
CN(CC(F)(F)F)c1ncc(-c2ccc(=O)n(Cc3ccc(F)cc3F)n2)cn1 [Compound 29, 2-(2,4-difluorobenzyl)-6-(2-(methyl(2,2,2-trifluoroethyl)amino)pyrimidin-5-yl)pyridazin-3(2H)-one] | < 10
CN1CCC(F)(COc2ccc(-c3ccc(=O)n(Cc4ccc(Cl)cc4)n3)cn2)CC1 [Compound 28, 2-(4-chlorobenzyl)-6-(6-((4-fluoro-1-methylpiperidin-4-yl)methoxy)pyridin-3-yl)pyridazin-3(2H)-one] | > 100
CC1CCC(=O)N1c1ncc(-c2ccc(=O)n(Cc3ccc(Cl)cc3)n2)cn1 (stereo not drawn) [Compound 47, 2-(4-chlorobenzyl)-6-(2-(2-methyl-5-oxopyrrolidin-1-yl)pyrimidin-5-yl)pyridazin-3(2H)-one] | < 10
O=c1ccc(-c2ccc(OCC(F)(F)F)cc2)nn1Cc1ccc(Cl)cc1 [Compound 101, 2-(4-chlorobenzyl)-6-(4-(2,2,2-trifluoroethoxy)phenyl)pyridazin-3(2H)-one] | < 10
O=c1ccc(-c2ccc(OC(F)F)nc2)nn1[C@@H](CO)c1ccc(Cl)cc1 [Compound 53, (R)-2-(1-(4-chlorophenyl)-2-hydroxyethyl)-6-(6-(difluoromethoxy)pyridin-3-yl)pyridazin-3(2H)-one] | > 100
O=c1ccc(-c2cnc(OCC(F)(F)F)nc2)nn1Cc1ccc(F)cc1F [Compound 39, 2-(2,4-difluorobenzyl)-6-(2-(2,2,2-trifluoroethoxy)pyrimidin-5-yl)pyridazin-3(2H)-one] | < 10
O=c1ccc(-c2ccc(Cl)cc2)nn1Cc1ccccc1Cl [Compound 310, 2-(2-chlorobenzyl)-6-(4-chlorophenyl)pyridazin-3(2H)-one] | < 10
O=c1ccc(-c2cnc(N3CC(OC(F)(F)F)C3)nc2)nn1Cc1ccc(Cl)cc1 [Compound 18, 2-(4-chlorobenzyl)-6-(2-(3-(trifluoromethoxy)azetidin-1-yl)pyrimidin-5-yl)pyridazin-3(2H)-one] | < 10

Next, values leading:

IC50 [µM] | SMILES
< 10 | CC1CCCN1c1ncc(-c2ccc(=O)n(Cc3ccc(F)cc3F)n2)cn1 (stereo not drawn) [Compound 16, 2-(2,4-difluorobenzyl)-6-(2-(2-methylpyrrolidin-1-yl)pyrimidin-5-yl)pyridazin-3(2H)-one]
< 10 | O=c1ccc(-c2cnc(OCC(F)(F)F)nc2)nn1Cc1ccccc1 [Compound 31, 2-benzyl-6-(2-(2,2,2-trifluoroethoxy)pyrimidin-5-yl)pyridazin-3(2H)-one]
< 10 | C[C@H]1Cc2cc(-c3ccc(=O)n(Cc4ccc(Cl)cc4)n3)ccc2O1 [Compound 110, (S)-2-(4-chlorobenzyl)-6-(2-methyl-2,3-dihydrobenzofuran-5-yl)pyridazin-3(2H)-one]
< 10 | Cc1ccc(-c2ccc(=O)n(Cc3ccc(Cl)cc3)n2)cc1 [Compound 301, 2-(4-chlorobenzyl)-6-(p-tolyl)pyridazin-3(2H)-one]
< 10 | O=c1ccc(-c2cnc(NCC(F)(F)F)nc2)nn1Cc1ccc(Cl)cc1 [Compound 6, 2-(4-chlorobenzyl)-6-(2-((2,2,2-trifluoroethyl)amino)pyrimidin-5-yl)pyridazin-3(2H)-one]
< 10 | O=c1ccc(-c2cnc(N3CCCC3C(F)(F)F)nc2)nn1Cc1ccc(F)cc1F (stereo not drawn) [Compound 30, 2-(2,4-difluorobenzyl)-6-(2-(2-(trifluoromethyl)pyrrolidin-1-yl)pyrimidin-5-yl)pyridazin-3(2H)-one]
< 10 | O=c1ccc(-c2cnc(OC(F)F)nc2)nn1Cc1ccc(Cl)cc1 [Compound 10, 2-(4-chlorobenzyl)-6-(2-(difluoromethoxy)pyrimidin-5-yl)pyridazin-3(2H)-one]
< 10 | COc1ccc(Cn2nc(-c3ccc(Br)cc3)ccc2=O)cc1 [Compound 237, 6-(4-bromophenyl)-2-(4-methoxybenzyl)pyridazin-3(2H)-one]
< 10 | O=c1ccc(-c2cnc(OCC(F)(F)F)nc2)nn1Cc1cccc(F)c1F [Compound 38, 2-(2,3-difluorobenzyl)-6-(2-(2,2,2-trifluoroethoxy)pyrimidin-5-yl)pyridazin-3(2H)-one]
< 10 | O=c1ccc(-c2ccc(OC(F)(F)F)nc2)nn1Cc1ccc(Cl)cc1 [Compound 13, 2-(4-chlorobenzyl)-6-(6-(trifluoromethoxy)pyridin-3-yl)pyridazin-3(2H)-one]
< 10 | O=c1ccc(-c2cnc(OCC(F)(F)F)nc2)nn1Cc1ccccc1F [Compound 36, 2-(2-fluorobenzyl)-6-(2-(2,2,2-trifluoroethoxy)pyrimidin-5-yl)pyridazin-3(2H)-one]
< 10 | O=c1ccc(-c2cnc(OCCOC(F)(F)F)nc2)nn1Cc1ccc(Cl)cc1 [Compound 2, 2-(4-chlorobenzyl)-6-(2-(2-(trifluoromethoxy)ethoxy)pyrimidin-5-yl)pyridazin-3(2H)-one]
< 10 | O=c1ccc(-c2ccc(Cl)cc2)nn1Cc1cccc(F)c1 [Compound 317, 6-(4-chlorophenyl)-2-(3-fluorobenzyl)pyridazin-3(2H)-one]
< 10 | CNc1ccc(-c2ccc(=O)n(Cc3ccc(Cl)cc3)n2)cc1 [Compound 123, 2-(4-chlorobenzyl)-6-(4-(methylamino)phenyl)pyridazin-3(2H)-one]
< 10 | O=c1ccc(-c2ccc(Cl)cc2)nn1Cc1ccccc1F [Compound 309, 6-(4-chlorophenyl)-2-(2-fluorobenzyl)pyridazin-3(2H)-one]
< 10 | O=c1ccc(-c2cnc(N3CC(OC(F)F)C3)nc2)nn1Cc1ccc(Cl)cc1 [Compound 9, 2-(4-chlorobenzyl)-6-(2-(3-(difluoromethoxy)azetidin-1-yl)pyrimidin-5-yl)pyridazin-3(2H)-one]
